Data on 19 compounds can be found in patent US6569686B2, “Measurement of solubility-pH profiles” (Pion, Inc., priority 2000, dated 2003).

Data set [1] is described as follows: true pKa of the compounds (commercial pKa instruments / literature). The class given is physicochemical. Particulars: pION unpublished data (footnote f). The source says: For ionizable molecules in dilute solutions (where salt precipitation may be ignored), when the log (logarithm) of the measured solubility is plotted vs. pH, the curve is bilinear, with one segment having a zero slope and the other segment having a unit slope (positive for acids and negative for bases). […]. In a simple aqueous equilibrium system, the pH where the asymptotes of the horizontal and diagonal segments intersect is equal to the pKa of the solute. Under such ideal circumstances, it is possible to determine the pKa and the intrinsic aqueous solubility, So, of the compound from the crossing of the segments [Z. T. Chowhan, J. Pharm. Sci. 1978, 67, 1257-1260; W. H. Streng, H. G. H. Tan, Int. J. Pharm. 1985, 25, 135-145]. Such pKa values can be directly measured by commercially-available devices [C. D. Bevan, A. P. Hill, D. P. Reynolds, Patent Cooperation Treaty, WO 99/13328, Mar. 18, 1999; Sirius Analytical Instruments Ltd., UK].
(2) Also, a novel and simple computational method is developed to extract the aqueous intrinsic solubilities of drug molecules from data altered by DMSO-drug binding, or drug-drug aggregation reactions, or drug reactions with non-ionizable excipients, using the difference between the apparent pKa measured by the analytical device and the true pKa measured by analytical devices available commercially (e.g., from Sirius Analytical Instruments Ltd., Forest Row, E. Sussex, UK).
We discovered that if one determines the pKa^APP (in the presence of the DMSO effect) in the solubility assay, and subtracts from it the true pKa (determined using commercial instruments such as those from Sirius, UK), the difference, when subtracted from the logarithm of the apparent (DMSO-distorted) solubility, So^APP, yields the true aqueous solubility constant:
Since the pKas of the studied compounds are known (Table 2), it was possible to calculate the pKa shifts (Δ values in Table 1).

The nature of data set [2]: solubility-pH by aqueous dilution method, 96-well UV. It counts as physicochemical. The settings on record: kinetic from dmso stock.
The nature of data set [3]: apparent pKa from fitted log S vs. pH curve. It counts as physicochemical. The settings on record: saturated solutions; for pKa shift Δ (apparent pKa minus true pKa) / pKa shift Δ: DMSO-containing saturated solutions (FIG. 8); for pKa shift Δ (apparent pKa minus true pKa): read-out: pKa shift Δ = pKa^APP − pKa; for pKa shift Δ: pKa shift Δ = pKa^APP − pKa, heading: pKa shift Δ = pKa^APP − pKa.

The conditions of data set [4]: no DMSO, cited from earlier work; for Shake-Flask So: literature / private correspondence.
A short description of data set [5]: true aqueous intrinsic solubility corrected from pKa shifts. Particulars: for solubility: aqueous buffer, kinetic from dmso stock; for log So (corrected): log of μg/mL, horizontal asymptote of dashed curve in FIG. 8. The class given is physicochemical.
For data set [6] the following is noted: literature (footnotes a, b); cited from earlier work.
For data set [7] the following is noted: true pKa; literature sources (footnotes a, b, h); cited from earlier work.
Data set [8] can be described thus: intrinsic solubility by pSOL Model 3 acid-base titrator. The class given is physicochemical. Particulars: pION unpublished data (footnote f). The method, then: Solubility determinations are illustrated with 15 sparingly-soluble generic, mostly-ionizable drugs (FIG. 1), covering about three orders of magnitude in solubilities, with the lowest value being about 0.1 μg/mL (terfenadine at high pH). The ionizable bases include amiloride, amitriptyline, chlorpromazine, miconazole, nortriptyline, phenazopyridine, propranolol, and terfenadine. […] Piroxicam was picked as an example of an ampholyte, and griseofulvin as an example of a non-ionizable molecule. The results of the solubility measurements were compared to literature equilibrium solubility-pH values from reliable sources, and to values determined by the pSOL Model 3 (pION) acid-base titrator [A. Avdeef, C. M. Berger, C. Brownell, Pharm . Res. 2000, 17, 85-89].

Data set [9] is described as follows: solubility-pH by cosolvent method (50% v/v 1-propanol), 96-well UV. The settings on record: universal buffer solution, aqueous buffer, kinetic from dmso stock, 0.26% v/v DMSO, read-out: So^APP (apparent intrinsic solubility). The class given is physicochemical. The method, then: The “sample” track on the left side of FIG. 4a depicts a series of steps leading up to the taking of the sample spectrum in a water-cosolvent solution. A known quantity of sample (37) is added in a known volume of the universal buffer solution of known pH (38), the amount of said sample being sufficient to cause precipitation to occur in the formed saturated solution (39). After waiting a period of time to allow the saturated solution to reach a desired steady state, the solution is filtered (40) to remove the solid, and obtain a clear solution (41).
A volume Y of a water-miscible cosolvent 42 is added to a volume Z of solution 41 to produce a new solution 43, in which the compound is diluted by Z/(Y+Z), from its concentration in solution 41. The spectrum of solution 43 is then immediately taken by the UV spectrophotometer (44), to minimize evaporation of the water-cosolvent solution. The mathematical treatment of the spectral data yields the area-under-the-curve of the filtered cosolvent sample solution (43), AUCS^COS. […]
18. As soon as the solutions are mixed in step 17, the robot transfers 5 μL from the diluted sample stock solution (using the 20 μL tips) to the blank solutions whose spectra had just been read in step 16: 14→17 (Sd→U). […]
The solubility is calculated according to equation (8). The results for phenazopyridine stated in Table 2 were determined by the cosolvent method.

The conditions of data set [10]: literature (Roseman, Yalkowsky 1973); cited from earlier work.
The mark [11] stands for this setting: universal buffer solution, 0.5% v/v DMSO, 4 h shaking, read-out: So^APP (apparent intrinsic solubility).
The mark [12] stands for this setting: saturated pH-buffered aqueous solution (universal buffer), read-out: corrected So (intrinsic solubility corrected for drug-DMSO/drug-aggregate effects).
Where [13] appears, read: pKa (I = 0.012 M, 50 vol % CH3CN).
Where [14] appears, read: read-out: corrected So (intrinsic solubility corrected for drug-DMSO/drug-aggregate effects).

Values after ≈ are worked out from the molar mass of the structure shown. Values joined by “and” are separate entries in the source; they are usually repeats but may differ in a detail not shown here. Identical values can stand only once. Like-named read-outs stand apart in the source and are kept apart here. Marks after values point to notes of the source that are not given here.

In data set [1], `O=C(O)c1ccc2ccccc2c1` [2-naphthoic acid] had a pKa of 4.16. Besides, the solubility at 4 h in [2] (setting [11]) came out at 33.3 µg/mL (≈ 193 µM). For the same compound, in [3], the pKa shift Δ (apparent pKa minus true pKa) is above 0. For the same compound, the “Shake-Flask So” value in [4] is reported as 22.4^g μg/mL. Besides, in [5] (setting [12]), the solubility was 20.2 µg/mL.
`OB(O)O` [Boric Acid, boric acid] showed a pKa in the data set “physchem” (pH 3, pKa (I = 0.020M)) of 9.13.
For the compound `O=C(O)CO` [Glycolic Acid, glycolic acid], the pKa in the data set “physchem” (setting [13]) is 4.56.
`O=S(=O)(O)CCN1CCOCC1` [MES monohydrate, 4-morpholine-ethanesulfonic acid]: the pKa worked out at 6.08 in the data set “physchem” (pH 3, pKa (I = 0.020M)) and 6.24 in the data set “physchem” (setting [13]).
Turning to `NCCS(=O)(=O)O` [Taurine, 2-aminoethanesulfonic acid], in the data set “physchem” (setting [13]), the pKa was 8.95.
For `CN(C)CCC=C1c2ccccc2CCc2ccccc21` [amitriptyline], in data set [6], the “pSOL So” value is 2.0^a μg/mL. In addition, the solubility at 4 h in data set [2] (setting [11]) amounted to 56.9 µg/mL (≈ 205 µM). Moreover, the pKa shift Δ in data set [3] was below 0. For the same compound, the “Shake-Flask So” value in data set [4] is 2.0^a μg/mL. Also, the solubility in data set [5] (setting [12]) amounted to 3 µg/mL. For the same compound, the pKa in data set [7] is recorded as 9.45^a.
With `CN(C)CCCN1c2ccccc2Sc2ccc(Cl)cc21` [chlorpromazine], the solubility at 4 h in data set [2] (setting [11]) turned out to be 19.4 µg/mL (≈ 60.8 µM). In data set [5] (setting [14]), the solubility was determined as 3.4 µg/mL. In data set [5], the “log So (corrected)” value was determined as 0.528.
With `O=C(O)Cc1ccccc1Nc1c(Cl)cccc1Cl` [diclofenac], the “pSOL So” value in [6] is reported as 0.8^b μg/mL. Also, in data set [2] (setting [11]), the solubility at 4 h is 22.6 µg/mL (≈ 76.3 µM). Further, the “Shake-Flask So” value in [4] was 0.6^b μg/mL. Further, the solubility in [5] (setting [12]) came to 3.8 µg/mL.
In the case of `NS(=O)(=O)c1cc(C(=O)O)c(NCc2ccco2)cc1Cl` [furosemide], the “pSOL So” value in data set [6] is 5.9^b μg/mL. Also, the “Shake-Flask So” value in data set [4] was 12.0^b μg/mL.
As to `COC1=CC(=O)C[C@@H](C)[C@]12Oc1c(Cl)c(OC)cc(OC)c1C2=O` [griseofulvin], the solubility at 4 h in data set [2] (setting [11]) amounted to 37.6 µg/mL (≈ 107 µM). The “Shake-Flask So” value in data set [4] is 9^d μg/mL. Further, the solubility in [5] (setting [12]) worked out at 20.2 µg/mL. Besides, the pKa entry in [7] is “non-”.
In the case of `COc1ccc2c(c1)c(CC(=O)O)c(C)n2C(=O)c1ccc(Cl)cc1` [indomethacin], in data set [6], the “pSOL So” value is given as 2.0^a μg/mL. Further, the solubility at 4 h in data set [2] (setting [11]) stood at 7.2 µg/mL (≈ 20.1 µM). Moreover, the “Shake-Flask So” value in data set [4] was 2.0 µg/mL and 1 µg/mL. Besides, in data set [5] (setting [12]), the solubility was determined as 4.1 µg/mL.
With `Clc1ccc(COC(Cn2ccnc2)c2ccc(Cl)cc2Cl)c(Cl)c1` (centres unmarked) [miconazole], the pKa in data set [1] is 6.07. In addition, the solubility at 4 h in [2] (setting [11]) was 11.1 µg/mL (≈ 26.7 µM). Moreover, in data set [3], the pKa shift Δ (apparent pKa minus true pKa) is below 0. Moreover, in [8], the “pSOL So” value is given as 0.7^f μg/mL. For the same compound, in [5] (setting [12]), the solubility was 1.6 µg/mL.
For the compound `CNCCC=C1c2ccccc2CCc2ccccc21` [nortriptyline], the solubility at 4 h in data set [2] (universal buffer solution, in 0.5% v/v DMSO, read-out: solubility) is above 98 µg/mL.
As for `Nc1ccc(/N=N/c2ccccc2)c(N)n1` [phenazopyridine], the pKa in data set [1] came out at 5.15; in data set [3] (saturated solutions containing 0.26% v/v DMSO, read-out: apparent pKa (pKa^APP)) it was 5.83. Also, in [9], the solubility at 4 h is 12.2 µg/mL (≈ 57.2 µM). For the same compound, the pKa shift Δ in [3] was at least 0. Moreover, the “pSOL So” value in data set [8] was 14.3^f μg/mL. The solubility in data set [5] (saturated pH-buffered aqueous solution (universal buffer), from So^APP in 0.26% v/v DMSO, cosolvent method, read-out: corrected So (intrinsic solubility corrected for drug-DMSO/drug-aggregate effects)) is 12.2 µg/mL.
In the case of `CN1C(C(=O)Nc2ccccn2)=C(O)c2ccccc2S1(=O)=O` [piroxicam], in data set [2] (setting [11]), the solubility at 4 h came out at 10.5 µg/mL (≈ 31.7 µM). For the same compound, the pKa in data set [3] (0.5% v/v DMSO, solid curve in FIG. 8, read-out: apparent pKa (pKa^APP)) was 6.05. Further, the pKa shift Δ in data set [3] was 0.98. Besides, the “pKa deduced from literature solubility data” value in data set [4] (Jinno et al.) is listed as 5.63. The “Shake-Flask So” value in data set [4] was 9.1^i μg/mL and 8-16^j μg/mL. For the same compound, the solubility in [5] (setting [14]) came to 1.1 µg/mL. Further, in data set [5], the “log So (corrected)” value is reported as 0.041.
`CCCN(CCC)S(=O)(=O)c1ccc(C(=O)O)cc1` [probenecid] registered a pKa in [1] of 3.01. The solubility at 4 h in data set [2] (setting [11]) amounted to 4.6 µg/mL (≈ 16.1 µM). Besides, the pKa shift Δ (apparent pKa minus true pKa) in [3] was above 0. Further, the “pSOL So” value in data set [8] was 0.6^f μg/mL. In addition, the solubility in [5] (setting [12]) is 0.7 µg/mL.
Take `CC(C)NCC(O)COc1cccc2ccccc12` (centres unmarked) [propranolol]: the solubility at 4 h in [2] (aqueous buffer, in 0.5% v/v DMSO, read-out: solubility) is around 100 µg/mL (≈ 386 µM).
In data set [1], `CC(C)(C)c1ccc(C(O)CCCN2CCC(C(O)(c3ccccc3)c3ccccc3)CC2)cc1` (centres unmarked) [terfenadine] registered a pKa of 9.53. For the same compound, the solubility at 4 h in [2] (setting [11]) was 4.4 µg/mL (≈ 9.33 µM). Moreover, the pKa shift Δ (apparent pKa minus true pKa) in data set [3] is below 0. Moreover, the “pSOL So” value in data set [8] is on record as 0.1^f μg/mL. The solubility is around 0.1 µg/mL in data set [5] (at high pH, read-out: solubility (lowest value)) and 0.1 µg/mL in data set [5] (setting [12]).
With prostaglandin F2α, in [10], the “pKa shift Δ = pKa^APP − pKa” value was “Δ < or = 0”.
